Test results as given in PMC5047949, “Kinetic analysis of the translocator protein positron emission tomography ligand [^18F]GE-180 in the human brain” (European Journal of Nuclear Medicine and Molecular Imaging, 2016).

What was measured:
[1] = parameters: method as in PMID 26072270; conditions: 60 min; earlier preclinical work; cited from earlier work
[2] = Safety and tolerability after radioligand administration; assay type: in vivo, human
Source text: With regard to correlations between age and the principal outcome measure, there were no significant correlations between age and VT in either HABs and MABs in any of the ROIs studied (Spearman’s rho = −0.3 – 0.7 p = 0.188 – 0.873 in HABs; Spearman’s rho = 0.1 – 0.8, p = 0.104 – 0.94 in MABs). There were also no significant relationships between age and outcome measures when added as a covariate in the repeated measures ANOVA. Demographic data are provided in Supplementary Table 1.

[3] = Arterial whole-blood and plasma activity, and parent fraction by HPLC; assay type: in vivo, human
Protocol: Arterial blood activity was measured every second for the first 15 min of the 90-min scan using an automated blood sampling system (ABSS Allog, Mariefred, Sweden) connected to the subject via a 1.5 m × 1.0 mm diameter polytetrafluoroethylene line (blood withdrawal rate 2.5 ml/min). In addition, blood samples (10 mL) were collected manually from the radial artery at 0, 5, 10, 15, 30, 50, 70 and 90 min to assay whole-blood and plasma activity. Plasma was obtained by centrifugation for 3 min at 1,800 g. Activity in whole blood and plasma was measured in a CAPRAC-t well counter over 10 – 60 s. The first 15 min of continuous whole-blood activity was combined with the activity from discrete samples to generate the whole-blood activity curve for use in data modelling. The continuous plasma-to-blood ratio was estimated using a constant model and a total plasma activity curve was obtained by correcting the whole-blood curve for this partition between plasma and blood.
The parent fraction of [^18F]GE-180 was measured by high-performance liquid chromatography (Agilent 1,100 and 1,260 series) of discrete plasma samples (3.5 mL). The parent fraction was fitted to a single exponential plus a constant model. The total plasma activity was multiplied by this parent fraction and then smoothed post peak by fitting to a triexponential function to generate an arterial parent plasma input function. A delay correction of up to +30 s was applied to the input function prior to fitting the kinetic modelling. This was performed to account for delay in the 1.5-m tube (28.3 s) and delay between the radial artery and the brain.

[4] = system: translocator protein (TSPO); experiment: Dynamic [^18F]GE-180 brain PET with arterial input; 1TC, 2TC and Logan kinetic modelling; assay type: in vivo, human; conditions: for Distribution volume ratio: cortical grey matter pseudoreference, median (IQR); for K1 / VT / k2 / k3 / k4: median (interquartile range)
Protocol: PET studies were performed on a Biograph 6 (six-slice CT) scanner after administration of 182 ± 3.1 MBq via intravenous bolus injection over 10 s followed by a 10-mL saline flush. A low-dose CT scan preceded the PET acquisition to allow correction for tissue attenuation. Emission data were then acquired over 90 min in list mode and reconstructed as 24 temporal frames (6 × 15, 3 × 60, 5 × 120, 5 × 300, 5 × 600 s) using filtered back-projection (matrix size 168 × 168, zoom 2.6, 5-mm gaussian filter, pixel size 1.56 × 1.56, slice thickness 3 mm) with and without attenuation correction. Standard corrections for scatter, decay and random counts were applied.
We used the PET data analysis and kinetic modelling toolkit, MIAKAT™ (www.miakat.org), which incorporates software from SPM5 (Wellcome Trust Centre for Neuroimaging) and FSL (FMRIB, University of Oxford). The brain was initially extracted from the T1-weighted MR images. The CIC neuroanatomical atlas was nonlinearly registered to the individual’s extracted brain in order to generate a personalized set of anatomically parcellated regions. Frame-by-frame motion correction of the dynamic (without attenuation correction) PET data was performed using mutual information coregistration of the individual frames to a reference frame. An average motion-corrected PET image was generated and used for coregistration with the T1-weighted MR image. Finally, regional tissue time–activity curves (TACs) were generated for each region of interest (ROI) defined from the CIC atlas that had been transformed into each individual’s image space.
Datasets were analysed with a one-tissue compartment (1TC) model and a two-tissue compartment (2TC) model and the Logan graphical method, using the metabolite-corrected plasma input function as previously described with a fixed 5 % blood volume correction. The primary outcome measures were the radioligand delivery rate constant (K1; mL cm^−3 min^−1), total distribution volume (VT: mL cm^−3), and standardized uptake values (SUV). The SUV ratio (SUVR) and distribution volume ratio (DVR) were estimated using the cortical grey matter as a pseudo reference region.
To investigate the stability of VT over different scan durations, a time stability analysis was performed by analysing data for total time windows that ranged between 40 and 90 min in 10-min increments.

[5] = humans; in vitro work, not measured in this study; cited from earlier work
[6] = pH 7.4; preclinical work; cited from earlier work
[7] = 2TC-fix model, across all regions and subjects
[8] = Logan graphical method, Cerebellum
[9] = Logan graphical method, Frontal lobe
[10] = Logan graphical method, Occipital lobe
[11] = Logan graphical method, Parietal lobe
[12] = Logan graphical method, Striatum
[13] = Logan graphical method, Temporal lobe
[14] = Logan graphical method, Thalamus

SMILES: CCN(CC)C(=O)[C@H]1CCCc2c1c1c(OC)cccc1n2CC[18F] [[^18F]GE-180]
- parent in the brain [1]: 94%
- safety of tracer administration ([2]; healthy subjects): safe
- pharmacological effects after injection ([2]; patient reports, blood pressure, pulse, respiration rate, oxygen saturation): no pharmacological effects
- intact parent tracer remaining ([3]; 90 min, plasma): 70%
- time of peak concentration in plasma ([3]; arterial plasma after i.v. bolus): about 45 s
- plasma-to-blood ratio ([3]; constant across subjects): about 1.69
- polar radioactive metabolites (three) in plasma ([3]; over the 90 min scanning window): < 10 % of parent compound
- Distribution volume ratio ([4]; 1TC model, Cerebellum): 0.968 (0.91 – 1)
- K1 ([4]; 1TC model, Cerebellum): 0.00656 (0.0054 – 0.0076) mL/min
- VT ([4]; 1TC model, Cerebellum): 0.178 (0.16 – 0.22) mL/cm^3
- k2 ([4]; 1TC model, Cerebellum): 0.0339 (0.034 – 0.034) /min
- Distribution volume ratio ([4]; 1TC model, Frontal lobe): 0.939 (0.94 – 0.95)
- K1 ([4]; 1TC model, Frontal lobe): 0.00472 (0.0041 – 0.006) mL/min
- VT ([4]; 1TC model, Frontal lobe): 0.171 (0.15 – 0.22) mL/cm^3
- k2 ([4]; 1TC model, Frontal lobe): 0.0271 (0.023 – 0.028) /min
- Distribution volume ratio ([4]; 1TC model, Occipital lobe): 1.12 (1.1 – 1.2)
- K1 ([4]; 1TC model, Occipital lobe): 0.00621 (0.0057 – 0.0074) mL/min
- VT ([4]; 1TC model, Occipital lobe): 0.214 (0.19 – 0.25) mL/cm^3
- k2 ([4]; 1TC model, Occipital lobe): 0.03 (0.025 – 0.032) /min
- Distribution volume ratio ([4]; 1TC model, Parietal lobe): 0.969 (0.96 – 1)
- K1 ([4]; 1TC model, Parietal lobe): 0.00513 (0.004 – 0.0061) mL/min
- VT ([4]; 1TC model, Parietal lobe): 0.19 (0.16 – 0.22) mL/cm^3
- k2 ([4]; 1TC model, Parietal lobe): 0.027 (0.024 – 0.028) /min
- Distribution volume ratio ([4]; 1TC model, Striatum): 0.826 (0.78 – 0.89)
- K1 ([4]; 1TC model, Striatum): 0.00358 (0.003 – 0.0046) mL/min
- VT ([4]; 1TC model, Striatum): 0.155 (0.14 – 0.2) mL/cm^3
- k2 ([4]; 1TC model, Striatum): 0.0241 (0.021 – 0.025) /min
- K1 ([4]; 1TC model, Temporal lobe): 0.00514 (0.0048 – 0.006) mL/min
- VT ([4]; 1TC model, Temporal lobe): 0.182 (0.17 – 0.24) mL/cm^3
- k2 ([4]; 1TC model, Temporal lobe): 0.0266 (0.025 – 0.028) /min
- Distribution volume ratio ([4]; 1TC model, Thalamus): 1.03 (0.96 – 1.1)
- K1 ([4]; 1TC model, Thalamus): 0.00555 (0.0046 – 0.0058) mL/min
- VT ([4]; 1TC model, Thalamus): 0.182 (0.17 – 0.24) mL/cm^3
- k2 ([4]; 1TC model, Thalamus): 0.0261 (0.024 – 0.028) /min
- Distribution volume ratio ([4]; 2TC model, Cerebellum): 0.916 (0.69 – 0.98)
- K1 ([4]; 2TC model, Cerebellum): 0.0224 (0.016 – 1.3) mL/min
- VT ([4]; 2TC model, Cerebellum): 0.281 (0.25 – 0.33) mL/cm^3
- k2 ([4]; 2TC model, Cerebellum): 0.319 (0.23 – 78) /min
- k3 ([4]; 2TC model, Cerebellum): 0.0331 (0.029 – 0.091) /min
- k4 ([4]; 2TC model, Cerebellum): 0.0113 (0.0084 – 0.018) /min
- Distribution volume ratio ([4]; 2TC model, Frontal lobe): 0.984 (0.96 – 1.2)
- K1 ([4]; 2TC model, Frontal lobe): 0.0102 (0.0089 – 0.013) mL/min
- VT ([4]; 2TC model, Frontal lobe): 0.346 (0.26 – 0.5) mL/cm^3
- k2 ([4]; 2TC model, Frontal lobe): 0.195 (0.15 – 1.6) /min
- k3 ([4]; 2TC model, Frontal lobe): 0.0301 (0.024 – 0.15) /min
- k4 ([4]; 2TC model, Frontal lobe): 0.00653 (0.004 – 0.017) /min
- Distribution volume ratio ([4]; 2TC model, Occipital lobe): 1.07 (0.97 – 1.1)
- K1 ([4]; 2TC model, Occipital lobe): 0.0238 (0.019 – 0.031) mL/min
- VT ([4]; 2TC model, Occipital lobe): 0.35 (0.3 – 0.52) mL/cm^3
- k2 ([4]; 2TC model, Occipital lobe): 0.385 (0.2 – 0.62) /min
- k3 ([4]; 2TC model, Occipital lobe): 0.0395 (0.036 – 0.054) /min
- k4 ([4]; 2TC model, Occipital lobe): 0.0101 (0.0062 – 0.014) /min
- Distribution volume ratio ([4]; 2TC model, Parietal lobe): 1.01 (0.98 – 1.1)
- K1 ([4]; 2TC model, Parietal lobe): 0.0116 (0.011 – 0.014) mL/min
- VT ([4]; 2TC model, Parietal lobe): 0.33 (0.31 – 0.42) mL/cm^3
- k2 ([4]; 2TC model, Parietal lobe): 0.192 (0.15 – 0.25) /min
- k3 ([4]; 2TC model, Parietal lobe): 0.0334 (0.025 – 0.039) /min
- k4 ([4]; 2TC model, Parietal lobe): 0.00873 (0.0045 – 0.014) /min
- Distribution volume ratio ([4]; 2TC model, Striatum): 0.451 (0.41 – 0.71)
- K1 ([4]; 2TC model, Striatum): 0.00413 (0.0033 – 0.0088) mL/min
- VT ([4]; 2TC model, Striatum): 0.155 (0.14 – 0.22) mL/cm^3
- k2 ([4]; 2TC model, Striatum): 1.14 (0.66 – 1.7) /min
- k3 ([4]; 2TC model, Striatum): 4.89 (0.62 – 9.1) /min
- k4 ([4]; 2TC model, Striatum): 0.14 (0.027 – 0.21) /min
- Distribution volume ratio ([4]; 2TC model, Temporal lobe): 0.958 (0.93 – 1)
- K1 ([4]; 2TC model, Temporal lobe): 0.0143 (0.012 – 0.032) mL/min
- VT ([4]; 2TC model, Temporal lobe): 0.306 (0.27 – 0.42) mL/cm^3
- k2 ([4]; 2TC model, Temporal lobe): 0.217 (0.16 – 1.3) /min
- k3 ([4]; 2TC model, Temporal lobe): 0.0348 (0.03 – 0.15) /min
- k4 ([4]; 2TC model, Temporal lobe): 0.00927 (0.0063 – 0.016) /min
- Distribution volume ratio ([4]; 2TC model, Thalamus): 0.922 (0.81 – 1.1)
- K1 ([4]; 2TC model, Thalamus): 0.0118 (0.011 – 0.014) mL/min
- VT ([4]; 2TC model, Thalamus): 0.376 (0.28 – 0.41) mL/cm^3
- k2 ([4]; 2TC model, Thalamus): 0.16 (0.14 – 0.2) /min
- k3 ([4]; 2TC model, Thalamus): 0.0315 (0.026 – 0.042) /min
- k4 ([4]; 2TC model, Thalamus): 0.00881 (0.0062 – 0.012) /min
- average regional delivery rate constant (K1) ([4]; 2TC model, healthy subjects): 0.01 mL cm^−3 min^−1
- K1, average [4, 7]: 0.013 mL cm^−3 min^−1
- VT, average [4, 7]: 0.311 mL cm^−3
- k2, average [4, 7]: 0.229 min⁻¹
- k3, average [4, 7]: 0.035 min⁻¹
- k4, average [4, 7]: 0.010 min⁻¹
- Distribution volume ratio [4, 8]: 0.99 (0.91 – 1)
- VT [4, 8]: 0.29 (0.24 – 0.3) mL/cm^3
- Distribution volume ratio [4, 9]: 0.931 (0.92 – 0.97)
- VT [4, 9]: 0.265 (0.23 – 0.33) mL/cm^3
- Distribution volume ratio [4, 10]: 1.14 (1.1 – 1.2)
- VT [4, 10]: 0.34 (0.3 – 0.39) mL/cm^3
- Distribution volume ratio [4, 11]: 0.996 (0.93 – 1)
- VT [4, 11]: 0.284 (0.23 – 0.35) mL/cm^3
- Distribution volume ratio [4, 12]: 0.844 (0.7 – 0.92)
- VT [4, 12]: 0.25 (0.21 – 0.29) mL/cm^3
- Distribution volume ratio [4, 13]: 1.01 (0.95 – 1.1)
- VT [4, 13]: 0.312 (0.24 – 0.36) mL/cm^3
- Distribution volume ratio [4, 14]: 0.991 (0.98 – 1)
- VT [4, 14]: 0.3 (0.26 – 0.31) mL/cm^3
- time of peak concentration in the brain ([4]; all subjects): around 1 min
- extraction across the blood–brain barrier (first-pass extraction) ([4]; healthy subjects, from K1 of the 2TC model): approximately 1%
- estimated median VT ([4]; striatum (lowest ROI), 2TC model): 0.16 mL cm^−3
- estimated median VT ([4]; thalamus (highest ROI), 2TC model): 0.38 mL cm^−3
- share of activity in a typical ROI that came from blood ([4]; tissue TAC minus whole-blood radioactivity curve): approximately 20%
- plasma free fraction [5]: approximately 3%
- logD [6]: 2.95
